Reference: US10005801B2 (priority 2016, dated 2018)
Values joined by “and” are separate entries in the source; they are usually repeats but may differ in a detail not shown here. Equal entries are not always repeated. “Also recorded” adds a separate entry of the source. Where two headings read alike, the source gives them in different places.

Legend:
H9c2 cardiomyoblasts = assay: Anoxia/reoxygenation (A/R)-induced cellular injury, CCK-8 cell viability; assay type: cell-based; conditions: for protection against A/R-induced cellular damage (cell viability): H9c2, 12, 25 and 50 μM for 1 h during anoxia, then reoxygenation
Method: FIG. 3B. […] During anoxia various concentrations of JK-1 and JK-2 were added into medium and incubated for 1 h, respectively. Then the cells underwent a reoxygenation process. After the treatments, the CCK-8 assay was performed to detect cell viability. Data was expressed as the mean±SEM. **P<0.01 vs the control group, #P<0.05, ##P<0.01 vs A/R alone group.
The cell counting kit (CCK)-8 was applied to measure the cell viability of HeLa cells cultured in 96-well plates. After the indicated cell treatment, 100 μL of CCK-8 solution at 1:10 dilution was added to each well and cells were incubated for a further 3 h at 37° C. Absorbance was measured at 450 nm with a microplate reader. The mean optical density (OD) of 4 wells in each group was used to calculate cell viability as follows: (experiments were performed in triplicate)
The effect of H2S as a cardioprotective agent against myocardial ischemia reperfusion (MI/R) injury is known in the art. The mechanisms include reducing oxidative stress, preserving mitochondrial function, decreasing myocardial inflammation, and improving angiogenesis. […] To establish the cellular model of MI/R injury, H9c2 cardiomyoblasts were exposed to anoxia/reoxygenation (A/R) treatment, together with increasing concentrations of H2O2 (100-400 μM). […] Since the median lethal concentration of H2O2 in H9c2 cells was approximately 400 μM, this concentration was used for our studies.
The protective effects of the disclosed compounds against A/R-induced cellular damage was examined. In these experiments, H9c2 cells were pretreated with JK-1 or JK-2 at various concentrations (12, 25 and 50 μM) for 1 h during anoxia. Cells then underwent a reoxygenation process, after which cell viability was analyzed.

HeLa cells = assay: H2S production in cells, WSP-5 fluorescent probe imaging; assay type: cell-based; conditions: 200 μM donor, 1 h
[1] = assay type: physicochemical; conditions: for H2S release under weak acidic pH: pH 5 and 6, PBS buffer; for H2S release under neutral and weak basic pH: pH 7.4 and 8, PBS buffer
[2] = system: myocardial ischemia/reperfusion (MI/R) injury; parameters: species or system mice; conditions: mouse, in vivo
[3] = system: myocardial ischemia/reperfusion (MI/R) injury; assay: Circulating cardiac troponin I in MI/R murine model; conditions: 50 μg/kg (p<0.05) or 100 μg/kg (p<0.01), blood at 4 h of reperfusion
Method: Blood was collected at 4 hours of reperfusion, and circulating cardiac troponin I levels were measured.
Surgical occlusion of the left coronary artery (LCA), infarct size determination, and troponin I (TnI) measurements were performed as previously described. ^1C57BL6/J male mice (10-12 weeks of age) were anesthetized using pentobarbital (50 mg/kg) and ketamine (60 mg/kg) and maintained under anesthesia throughout the procedure with additional administration of pentobarbital (50 mg/kg). […] A hair removal compound was used to remove the hair on the chest of mice. The area was then cleaned using betadine and alcohol wipes alternating 3 times. The chest was opened with via a median sternotomy and the exposed ribs, muscle, and tissues were cauterized to prevent bleeding. The LCA was visualized using a dissection microscope with a fiber optic light ring, and using a 7-0 silk suture, a 3-5 mm piece of PE-10 tubing was secured over the LCA, occluding the artery. Mice were subjected to 45 min of myocardial ischemia followed by reperfusion. At the time of reperfusion, an injection of vehicle (saline), JK-1 (50 μg/kg and 100 μg/kg), or JK-2 (50 μg/kg and 100 μg/kg) was given i.c. The chest was closed in layers, closing the muscle layer first, then the skin. Mice were removed from ventilation once pedal reflex returned and it was determined that respiration was spontaneous. Mice were placed in a recovery cage and supplied with 100% O2 via a nose cone. Reperfusion was allowed for 24 h, and blood samples for TnI measurements were taken at 4 h after time of reperfusion.
Blood samples were collected via a tail vein at 4 h of reperfusion. Cardiac troponin I level was measured in serum using the Life Diagnostic high sensitivity mouse cardiac troponin I ELISA kit following the manufacturer's instructions.

[4] = system: TAC-induced heart failure; assay: Transverse aortic constriction (TAC) heart failure model, echocardiography; assay type: in vivo, C57BL6/J mice; conditions: 100 μg/kg once daily i.p. from 3 weeks post-TAC, 14 weeks
Method: FIG. 7. Left ventricular dimensions at end-diastole (LVEDD) and at end-systole in millimeters (mm) at baseline and following heart failure in C57BL6/J mice. Mice were subjected to transverse aortic constriction (TAC) surgery to induce pressure overload hypertrophy and heart failure with reduced ejection fraction. LVEDD and LVESD were measured using high-resolution echocardiography at baseline and every 2 weeks thereafter for a period of 14 weeks. The H2S donor, (JK1) was administered starting at 3 weeks post-TAC at a dose of 100 μg/kg administered once daily via intraperitoneal injection. […] Following heart failure the heart dilates and this adverse remodeling response contributes to reduced cardiac function.
FIG. 8. Interventricular septum thickness measured at end-diastole (IVSd) and at end-systole (IVSs) in millimeters (mm) at baseline and following heart failure in C57BL6/J mice. Mice were subjected to transverse aortic constriction (TAC) surgery to induce pressure overload hypertrophy and heart failure with reduced ejection fraction. IVSd and IVSs were measured using high-resolution echocardiography at baseline and every 2 weeks thereafter for a period of 14 weeks. The H2S donor, (JK1) was administered starting at 3 weeks post-TAC at a dose of 100 μg/kg administered once daily via intraperitoneal injection. […] Myocardial wall thinning is a significant pathological component of heart failure.
(§1) FIG. 9. Left ventricular (LV) posterior wall thickness (PW) measured at end-diastole (d) and at end-systole (s) in millimeters (mm) at baseline and following heart failure in C57BL6/J mice. Mice were subjected to transverse aortic constriction (TAC) surgery to induce pressure overload hypertrophy and heart failure with reduced ejection fraction LVPWd and LVPWs were measured using high-resolution echocardiography at baseline and every 2 weeks thereafter for a period of 14 weeks. The H2S donor, (JK1) was administered starting at 3 weeks post-TAC at a dose of 100 μg/kg administered once daily via intraperitoneal injection.
as §1, with “10.” for “9.”, “ejection fraction (EF)” for “posterior wall thickness (PW) measured at end-diastole (d)”, “fractional shortening (FS)” for “at end-systole (s) in millimeters (mm)”, “fraction. LVEF (%)” for “fraction LVPWd”, “LVFS (%)” for “LVPWs”, “injection. LVEF and LVFS are clinically utilized measures of cardiac function.” for “injection.”

[5] = Circulating free H2S level, gas chromatography and chemiluminescence; assay type: in vivo, mice; conditions: plasma, 15 minutes after administration, 50 μg/kg (p<0.05) or 100 μg/kg (p<0.001)
Method: FIG. 5. […] Blood was collected 15 minutes after the administration of JK-2. Circulating free H2S levels were measured from plasma samples using gas chromatography and chemiluminesence methods.

[6] = 100 μM donor, PBS buffer pH 5.0, 6.0, 7.4, 8.0, time-dependent

Row | SMILES | H2O2 median lethal concentration (H9c2 cardiomyoblasts; H9c2 cells, A/R treatment together with H2O2 (100-400 μM)) | H2S production in cells (WSP-5 fluorescence) (HeLa cells) | H2S release [1, 6] | H2S release under weak acidic pH [1] | H2S release under neutral and weak basic pH [1] | myocardial infarct size [2] | reduction of infarct size per area-at-risk (INF/AAR) [2] | circulating cardiac troponin I level [3] | protection against A/R-induced cellular damage (cell viability) (H9c2 cardiomyoblasts) | interventricular septum thickness (IVSd, IVSs) [4] | left ventricular dilatation (LVEDD, LVESD) [4] | left ventricular ejection fraction (LVEF) and fractional shortening (LVFS) [4] | left ventricular posterior wall thickness (LVPWd, LVPWs) [4] | circulating free H2S level [5] | H2S release ([1]; pH 5)
1 | OO [H2O2, reference compound] | approximately 400 μM |  |  |  |  |  |  |  |  |  |  |  |  |  | 
2 | O=C(O)CNP(O)(=S)c1ccccc1 (centres unmarked) [JK-1] |  | much weaker fluorescence | much-enhanced H2S releasing ability | only released H2S under weak acidic pH | barely detectable H2S | significantly reduced | 43% and 64% | significantly lowered; also recorded: significantly reduced | significant attenuation of A/R induced damage | significantly preserved IVSd and IVSs | significantly reduced left ventricular dilatation | significantly preserved both LVEF and LVFS | significantly preserved left ventricular wall thickness |  | 
3 | O=C([O-])C(Cc1ccccc1)NP([O-])(=S)c1ccccc1.[Li+].[Li+] (centres unmarked) [JK-2] |  | strong fluorescence | much-enhanced H2S releasing ability | much faster release | slow and sustained H2S release | significantly reduced | 55% and 56% | significantly lowered; also recorded: significantly reduced | significant attenuation of A/R induced damage |  |  |  |  | significant increase; also recorded: significantly higher | 
4 | O=C([O-])C1CCCN1P([O-])(=S)c1ccccc1.[Li+].[Li+] (centres unmarked) [JK-5] |  |  |  |  |  |  |  |  |  |  |  |  |  |  | not to release H2S at all
